Assay results reported in ChEMBL document CHEMBL1201862, “PubChem BioAssay data set” (2004).
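Test compounds were applied to cells in 96-well plates for 48 hours at 5 doses. GI50: concentration for 50% inhibition of growth.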 Active and inactive are the calls of the source. No stated cut-off is given here; in the data, active = GI50 up to about 1.1 µM and inactive = higher.

Experiments:
Test in all cases: NCI tumour cell line growth inhibition, 48 h
A549 = test system: A549
ACHN = test system: ACHN
BT-549 = test system: BT-549
CCRF-CEM = test system: CCRF-CEM
HCC 2998 = test system: HCC 2998
HT-29 = test system: HT-29
IGROV-1 = test system: IGROV-1
LOX IMVI = test system: LOX IMVI
MCF7 = test system: MCF7
Malme-3M = test system: Malme-3M
NCI-H226 = test system: NCI-H226
OVCAR-3 = test system: OVCAR-3
SF-268 = test system: SF-268
SK-MEL-28 = test system: SK-MEL-28
SK-MEL-5 = test system: SK-MEL-5
SNB-75 = test system: SNB-75
A498 = test system: A498
EKVX = test system: EKVX
HOP-62 = test system: HOP-62
PC-3 = test system: PC-3

Structure (SMILES) | GI50 (A549) | GI50 (ACHN) | GI50 (BT-549) | GI50 (CCRF-CEM) | GI50 (HCC 2998) | GI50 (HT-29) | GI50 (IGROV-1) | GI50 (LOX IMVI) | GI50 (MCF7) | GI50 (Malme-3M) | GI50 (NCI-H226) | GI50 (OVCAR-3) | GI50 (SF-268) | GI50 (SK-MEL-28) | GI50 (SK-MEL-5) | GI50 (SNB-75) | GI50 (A498) | GI50 (EKVX) | GI50 (HOP-62) | GI50 (PC-3)
CN1CCN(C(=S)N(C(=O)c2cccs2)C2CCCCC2)CC1 | > 100 µM (inactive) | > 100 µM (inactive) | > 100 µM (inactive) | > 10 µM (inactive) | > 100 µM (inactive) | > 100 µM (inactive) | > 100 µM (inactive) | > 100 µM (inactive) | > 100 µM (inactive) | > 100 µM (inactive) | > 100 µM (inactive) | > 100 µM (inactive) | > 100 µM (inactive) | > 100 µM (inactive) | > 100 µM (inactive) | 89.9 µM (inactive) |  |  |  | 
CC1(C)CC(=O)C2=C(C1)OC1=C(CC(C)(C)CC1=O)C2c1ccccc1Cl (stereo not drawn) | > 100 µM (inactive) | > 100 µM (inactive) |  | > 100 µM (inactive) | > 100 µM (inactive) | > 100 µM (inactive) | > 100 µM (inactive) | > 100 µM (inactive) |  | > 100 µM (inactive) | > 100 µM (inactive) | > 100 µM (inactive) | > 100 µM (inactive) | > 100 µM (inactive) | 43.5 µM (inactive) | > 100 µM (inactive) | > 100 µM (inactive) | > 100 µM (inactive) | 59.2 µM (inactive) | > 100 µM (inactive)
CC1(C)[C@@H](Cn2cc(I)c(=O)[nH]c2=O)CC[C@@]1(C)CO | > 100 µM (inactive) | > 100 µM (inactive) |  | > 100 µM (inactive) | > 100 µM (inactive) |  |  | > 100 µM (inactive) |  |  | > 100 µM (inactive) | > 100 µM (inactive) | > 100 µM (inactive) | > 100 µM (inactive) | 92.9 µM (inactive) | 40.3 µM (inactive) | > 100 µM (inactive) | > 100 µM (inactive) | > 100 µM (inactive) | > 100 µM (inactive)
C[C@H]1OC(=O)[C@@H]2N=NN(Cc3ccccc3)[C@H]12 | > 100 µM (inactive) | > 100 µM (inactive) |  |  | > 100 µM (inactive) | > 100 µM (inactive) |  |  | > 100 µM (inactive) | > 100 µM (inactive) |  | > 100 µM (inactive) | > 100 µM (inactive) | > 100 µM (inactive) | > 100 µM (inactive) |  | > 100 µM (inactive) |  | > 100 µM (inactive) | > 100 µM (inactive)
COc1cc2c(cc1OC)C(CC(=O)NN=C(C)C)NCC2 (stereo not drawn) | > 100 µM (inactive) | > 100 µM (inactive) |  | > 100 µM (inactive) | > 100 µM (inactive) | > 100 µM (inactive) | > 100 µM (inactive) | > 100 µM (inactive) |  | > 100 µM (inactive) | > 100 µM (inactive) | > 100 µM (inactive) | > 100 µM (inactive) | > 100 µM (inactive) | > 100 µM (inactive) | > 100 µM (inactive) | > 100 µM (inactive) | > 100 µM (inactive) | > 100 µM (inactive) | 
C[C@H](O)C1CC(Cn2nnc3c(N)ncnc32)C1(C)C (stereo partly drawn) | > 100 µM (inactive) | > 100 µM (inactive) |  | > 100 µM (inactive) | > 100 µM (inactive) |  |  | > 100 µM (inactive) | > 100 µM (inactive) |  | > 100 µM (inactive) | > 100 µM (inactive) | > 100 µM (inactive) | > 100 µM (inactive) | > 100 µM (inactive) | > 100 µM (inactive) | > 100 µM (inactive) | > 100 µM (inactive) | > 100 µM (inactive) | > 100 µM (inactive)
COP(=O)(Cc1ccc(/C=C/C#N)o1)OC | > 100 µM (inactive) |  |  | > 100 µM (inactive) |  | > 100 µM (inactive) | > 100 µM (inactive) |  | > 100 µM (inactive) | 47.2 µM (inactive) | > 100 µM (inactive) | > 100 µM (inactive) | > 100 µM (inactive) | > 100 µM (inactive) |  | > 100 µM (inactive) | > 100 µM (inactive) | > 100 µM (inactive) | > 100 µM (inactive) | 
CNC(N)NC | > 100 µM (inactive) | > 100 µM (inactive) |  | > 100 µM (inactive) | > 100 µM (inactive) | > 100 µM (inactive) | > 100 µM (inactive) | > 100 µM (inactive) |  | > 100 µM (inactive) | > 100 µM (inactive) | > 100 µM (inactive) | > 100 µM (inactive) | > 100 µM (inactive) | > 100 µM (inactive) | > 100 µM (inactive) | > 100 µM (inactive) | > 100 µM (inactive) | > 100 µM (inactive) | 
COc1ccccc1NC(=O)CC(=O)n1nc(C)c(/N=N/c2ccccc2F)c1C | 98.4 µM (inactive) | > 100 µM (inactive) |  | > 10 µM (inactive) | > 100 µM (inactive) | > 100 µM (inactive) | > 100 µM (inactive) | > 100 µM (inactive) |  | > 10 µM (inactive) | 45.1 µM (inactive) | > 100 µM (inactive) | 28.7 µM (inactive) | > 100 µM (inactive) | > 100 µM (inactive) | 9.46 µM (inactive) | > 100 µM (inactive) | > 100 µM (inactive) | 32.6 µM (inactive) | 
O=C1CC2C=CC(O)C(C1)C2 (stereo not drawn) |  | > 100 µM (inactive) |  | > 100 µM (inactive) | > 100 µM (inactive) | > 100 µM (inactive) | > 100 µM (inactive) | > 100 µM (inactive) | > 100 µM (inactive) | > 100 µM (inactive) | 37.4 µM (inactive) | > 100 µM (inactive) | > 100 µM (inactive) | > 100 µM (inactive) |  | 72.6 µM (inactive) | > 100 µM (inactive) |  | > 100 µM (inactive) | > 100 µM (inactive)
COc1cc(/C=N\NC(=O)C[N+](C)(C)C)cc(OC)c1OC | > 10 µM (inactive) | > 10 µM (inactive) | > 10 µM (inactive) | > 10 µM (inactive) | > 10 µM (inactive) | > 10 µM (inactive) | > 10 µM (inactive) | > 10 µM (inactive) | > 10 µM (inactive) | > 10 µM (inactive) |  | > 10 µM (inactive) | > 10 µM (inactive) | > 10 µM (inactive) | > 10 µM (inactive) | > 10 µM (inactive) |  |  | > 10 µM (inactive) | > 10 µM (inactive)
CC1=C/C(=N\OCC(=O)O)CC(c2ccc(C(C)C)cc2)C1 (stereo not drawn) | 60.3 µM (inactive) |  |  | 34.4 µM (inactive) |  | 16.6 µM (inactive) | > 100 µM (inactive) |  | 52.5 µM (inactive) | 63.8 µM (inactive) |  |  |  |  | 17.5 µM (inactive) |  |  | > 100 µM (inactive) |  | 38.5 µM (inactive)
[N-]=[N+]=NC1=C(C(=O)c2ccccc2)C(=O)c2cccc3cccc1c23 | 45.2 µM (inactive) | 37.7 µM (inactive) | 44.8 µM (inactive) | 21.4 µM (inactive) |  | 51.2 µM (inactive) | 10.1 µM (inactive) |  | 6.79 µM (inactive) | 46.7 µM (inactive) | 36.4 µM (inactive) | 30.5 µM (inactive) | 17.1 µM (inactive) | 66.7 µM (inactive) | 44.2 µM (inactive) | 15.8 µM (inactive) |  | 19.1 µM (inactive) | 17.1 µM (inactive) | 49.2 µM (inactive)
Cc1c(CCCl)c(=O)n2c([nH]c3ccccc32)c1C#N | 1.78 µM (inactive) | 1.43 µM (inactive) | 1.91 µM (inactive) | 0.402 µM (active) |  | 1.6 µM (inactive) | 1.77 µM (inactive) | 0.619 µM (active) | 1.61 µM (inactive) | 0.678 µM (active) | 2.02 µM (inactive) | 1.73 µM (inactive) | 1.95 µM (inactive) | 1.87 µM (inactive) | 1.42 µM (inactive) | 1.45 µM (inactive) |  | 1.84 µM (inactive) | 1.82 µM (inactive) | 1.45 µM (inactive)
CSc1ccc2c(cc1=O)C(NC(=O)c1ccccc1)CCc1cc(O)c(O)c(O)c1-2 (stereo not drawn) | 30.5 µM (inactive) | 37.6 µM (inactive) |  | 6.73 µM (inactive) | 4.84 µM (inactive) | 32.3 µM (inactive) | 22 µM (inactive) | 16.4 µM (inactive) |  | 7.14 µM (inactive) | 21.2 µM (inactive) | 2.51 µM (inactive) | 22.9 µM (inactive) | 24.5 µM (inactive) | 2.61 µM (inactive) | 2.91 µM (inactive) | 22.3 µM (inactive) | 6.22 µM (inactive) | 6.01 µM (inactive) | 
Nc1ccn([C@H]2CO[C@@H](CO)O2)c(=O)n1 | 1.35 µM (inactive) | 0.106 µM (active) | 32.7 µM (inactive) | 0.238 µM (active) | 33.7 µM (inactive) | 15 µM (inactive) | 74 µM (inactive) | 0.804 µM (active) | 1.48 µM (inactive) | 62.2 µM (inactive) | 39.4 µM (inactive) | > 71.6 µM (inactive) | 11.4 µM (inactive) | 15.7 µM (inactive) | 18.9 µM (inactive) | > 100 µM (inactive) |  | > 55.8 µM (inactive) | 1.67 µM (inactive) | 1.39 µM (inactive)
CCCCCCCCCC1CC(=O)OC23CCCC(=O)C12O3 (stereo not drawn) | > 100 µM (inactive) | > 100 µM (inactive) |  | > 100 µM (inactive) | 56.8 µM (inactive) | > 100 µM (inactive) | > 100 µM (inactive) | 70.5 µM (inactive) |  | > 100 µM (inactive) | > 100 µM (inactive) | > 100 µM (inactive) | > 100 µM (inactive) | > 100 µM (inactive) | 74.5 µM (inactive) | > 100 µM (inactive) | 71.9 µM (inactive) | > 100 µM (inactive) | > 100 µM (inactive) | 
